The subject of one test is S180 sarcoma. On the set-up: species or system mice. The following applies: mouse, in vivo.
The test system of another test is H22 hepatic carcinoma. On the set-up: species or system mice. The following applies: mouse, in vivo.
A further test has as its system Tca83. Briefly: cells. The format is cell-based. The following applies: Homo sapiens.
A further test deals with HCT-8. Briefly: cells. The format is cell-based. The following applies: Homo sapiens.
The next test deals with Ketr-3. Kind of test: cells. The format is cell-based. The following applies: Homo sapiens, KETR3.
The next test concerns KB. Kind of test: cells. Type of test: cell-based. The following applies: Homo sapiens.
A further test deals with HELF. Briefly: cells. The format is cell-based. The following applies: Homo sapiens.
The next test relates to PC-3M. Kind of test: cells. The format is cell-based. The following applies: Homo sapiens.
For another test, the system named is MCF-7. Kind of test: cells. The format is cell-based. The following applies: Homo sapiens, MCF7.
A further test has as its system HeLa. Kind of test: cells. The format is cell-based. The following applies: Homo sapiens.
In another test the test system is A431. Briefly: cells. The format is cell-based. The following applies: Homo sapiens, A-431.
In a further test the test system is Hep-2. Kind of test: cells. The following applies: Homo sapiens. The format is cell-based.
The test system of another test is A549. Kind of test: cells. The format is cell-based. The following applies: Homo sapiens.
Another test has as its system CaEs-17. Briefly: cells. The format is cell-based. The following applies: Homo sapiens, CaEs17.
A further test concerns BGC-823. Kind of test: cells. The following applies: Homo sapiens. The format is cell-based.
For a further test, the system named is EJ. Briefly: cells. Type of test: cell-based. The following applies: Homo sapiens.
The next test relates to Bel7402. Kind of test: cells. Type of test: cell-based. The following applies: Homo sapiens, Bel-7402.
The subject of a further test is mononuclear phagocytes. Details: species or system mice. The following applies: mouse, in vivo.
On the set-up of test [1]: species or system mice. The following applies: mouse, in vivo.

Values after ≈ are worked out from the molar mass of the structure shown. Ends that are not written are not given here.

Regarding RKDVY [thymopentin], the “pathological picture of tumor tissue” value was “a few tumor cells were necrotic and degenerative” with S180 sarcoma; “a little of tumor cell necrosis and degeneration” with H22 hepatic carcinoma.
Broadly, the IC50 is the point on the concentration scale where inhibition reaches its midpoint. The low end stands for greater potency, the high end for weaker potency. Take `O=c1[nH]cc(F)c(=O)[nH]1` [Fluorouracil]: the IC50 in the test on Tca83 amounted to 0.924 ± 0.0435 µg/mL (≈ 7.1 µM); in the test on HCT-8, 0.605 ± 0.0278 µg/mL (≈ 4.65 µM); in the test with Ketr-3 it was 0.634 ± 0.0147 µg/mL (≈ 4.87 µM); with KB, 0.66 ± 0.0085 µg/mL (≈ 5.07 µM); in the test on HELF, 0.087 ± 0.004 µg/mL (≈ 0.669 µM); with PC-3M it was 1.49 ± 1.07 µg/mL (≈ 11.4 µM). Moreover, the IC50 is 0.646 ± 0.0437 µg/mL (≈ 4.97 µM) in the test with MCF-7; 0.613 ± 0.05 µg/mL (≈ 4.71 µM) in the test with HeLa; 0.174 ± 0.0447 µg/mL (≈ 1.34 µM) with A431; 4.88 ± 2.22 µg/mL (≈ 37.5 µM) in the test with Hep-2; 0.425 ± 0.034 µg/mL (≈ 3.27 µM) in the test on A549; 0.757 ± 0.0254 µg/mL (≈ 5.82 µM) in the test on CaEs-17. In addition, the IC50 with BGC-823 amounted to 0.632 ± 0.0572 µg/mL (≈ 4.86 µM); in the test on EJ it was 3.69 ± 0.909 µg/mL (≈ 28.4 µM); with Bel7402 it was 0.718 ± 0.0067 µg/mL (≈ 5.52 µM).
On to `O=P1(N(CCCl)CCCl)NCCCO1` (stereo not shown) [Cyclophosphamide], for which, in the test with S180 sarcoma, the “pathological picture of tumor tissue” value was “necrotic and degenerated tissue scattered”. Besides, in the test on mononuclear phagocytes, the “Index of phagocytosis, K” value was 0.0744 ± 0.0081 and the “Phagocytosis activity, α” value was 4.4614 ± 0.2413. Further, in the test with H22 hepatic carcinoma, the “pathological picture of tumor tissue” value was “necrotic and degenerated tissue scattered”.
In test [1], “Thymosin Alpha-1 (SDAAVDTSSEITTKDLKEKKEVVEEAEN; not fully specified (N-terminus); ends and bridges not checked; UniProt P06454 2-29, looked up) [biological drug, registration No. H20050339]” registered an Elongation index of 37.5% and a Swimming time of 18.9 ± 2.98 min. In the test with mononuclear phagocytes, the “Index of phagocytosis, K” value was 0.3473 ± 0.0130 and the “Phagocytosis activity, α” value was 7.9583 ± 0.5069.

The record behind these values is patent US20080187556A1 (priority 2005, published 2008).
